Experiments:
[1] = test system: Septoria nodorum; assay: Test F: Septoria glume blotch, preventive spray on wheat seedlings, visual disease rating; conditions: Septoria glume blotch; 100 = 100% disease control, 0 = no control relative to controls
[2] = test system: Puccinia recondita f. sp. tritici; assay: Test H: wheat leaf rust, curative spray on inoculated wheat seedlings, visual disease rating; conditions: wheat leaf rust, curative; 100 = 100% disease control, 0 = no control relative to controls
[3] = test system: Septoria tritici; assay: Test G: wheat leaf blotch, preventive spray on wheat seedlings, visual disease rating; conditions: wheat leaf blotch; 100 = 100% disease control, 0 = no control relative to controls
[4] = test system: Puccinia recondita f. sp. tritici; assay: Test I: wheat leaf rust, preventive spray on wheat seedlings, visual disease rating; conditions: wheat leaf rust, preventive; 100 = 100% disease control, 0 = no control relative to controls
[5] = test system: Botrytis cinerea; assay: Test B: tomato Botrytis, preventive spray on tomato seedlings, visual disease rating; conditions: tomato Botrytis; 100 = 100% disease control, 0 = no control relative to controls
[6] = test system: Alternaria solani; assay: Test C: tomato early blight, preventive spray on tomato seedlings, visual disease rating; conditions: tomato early blight; 100 = 100% disease control, 0 = no control relative to controls
[7] = test system: Erysiphe graminis f sp. tritici; assay: Test J: wheat powdery mildew, preventive spray on wheat seedlings, visual disease rating; conditions: wheat powdery mildew; 100 = 100% disease control, 0 = no control relative to controls

| Compound | Test F rating (% disease control) [1] [%] | Test H rating (% disease control) [2] [%] | Test G rating (% disease control) [3] [%] | Test I rating (% disease control) [4] [%] | Test B rating (% disease control) [5] [%] | Test C rating (% disease control) [6] [%] | Test J rating (% disease control) [7] [%] |
| --- | --- | --- | --- | --- | --- | --- | --- |
| COc1ccc(F)c(Nc2c(-c3c(F)cccc3F)c(C)nn2C)c1 [compound 216] | 0 | 0 | 76 | 26 | 96 | 0 | 99 |
| COc1cc(Oc2c(-c3c(F)cc(F)cc3F)c(C)nn2C)ccc1C [compound 217] | 0 | 40 | 83 | 79 | 75 | 0 | 99 |
| COc1cc(F)c(-c2c(C)nn(C)c2Oc2ccc(Cl)c(C#N)c2)c(F)c1 [compound 218] | 0 | 17 | 99 | 92 | 94 | 0 | 87 |
| Cc1cccc(Oc2c(-c3c(F)cc(F)cc3F)c(C)nn2C)c1 [compound 219] | 0 | 17 | 0 | 0 | 70 | 0 | 0 |
| COc1cc(F)c(-c2c(C)nn(C)c2Oc2cccc(C)c2)c(F)c1 [compound 220] | 40 | 40 | 98 | 99 | 98 | 97 | 100 |
| COc1cccc(Oc2c(-c3c(F)cc(OC)cc3F)c(C)nn2C)c1 [compound 221] | 82 | 17 | 100 | 99 | 98 | 94 | 100 |
| Cc1nn(C)c(Oc2cccc(C#N)c2)c1-c1c(F)cc(F)cc1F [compound 222] | 0 | 88 | 100 | 99 | 99 | 99 | 100 |
| COc1cc(F)c(-c2c(C)nn(C)c2Oc2cccc(C#N)c2)c(F)c1 [compound 223] | 99 | 0 | 100 | 100 | 96 | 9 | 100 |
| Cc1nn(C)c(Oc2ccc(Cl)c(C#N)c2)c1-c1c(F)cc(F)cc1F [compound 224] | 0 | 17 | 100 | 91 | 99 | 51 | 100 |
| Cc1nn(C)c(Oc2ccc(Br)c(C#N)c2)c1-c1c(F)cc(F)cc1F [compound 225] | 0 | 0 | 99 | 79 | 65 | 0 | 98 |
| Cc1nn(C)c(Nc2cc(F)ccc2F)c1-c1ccc(F)cc1F [compound 226] | 0 | 28 | 96 | 91 | 99 | 0 | 100 |
| COc1ccc(Cl)c(Nc2c(-c3ccc(F)cc3F)c(C)nn2C)c1 [compound 227] | 0 | 0 | 99 | 74 | 87 | 0 | 98 |
| COc1ccc(Nc2c(-c3ccc(F)cc3F)c(C)nn2C)c(F)c1 [compound 228] | 0 | 0 | 99 | 80 | 99 | 99 | 99 |
| Cc1nn(C)c(Nc2cc(F)c(F)cc2F)c1-c1ccc(F)cc1F [compound 229] | 0 | 0 | 99 | 91 | 99 | 17 | 98 |
| Cc1nn(C)c(Nc2ccc(F)cc2F)c1-c1ccc(F)cc1F [compound 230] | 0 | 0 | 100 | 97 | 99 | 99 | 100 |
| Cc1nn(C)c(Nc2cccc(Cl)c2Cl)c1-c1ccc(F)cc1F [compound 231] | 0 | 0 | 100 | 86 | 98 | 34 | 100 |
| Cc1nn(C)c(Oc2cc(F)c(C#N)cc2F)c1-c1ccc(F)cc1Br [compound 233] | 99 | 0 | 100 | 100 | 100 | 99 | 100 |
| Cc1nn(C)c(Nc2ccc(F)c(C#N)c2)c1-c1ccc(F)cc1Cl [compound 234] | 0 | 0 | 99 | 92 | 99 | 0 | 84 |
| Cc1nn(C)c(Nc2cc(C#N)ccc2Cl)c1-c1ccc(F)cc1Cl [compound 235] | 0 | 0 | 17 | 0 | 84 | 0 | 79 |
| Cc1nn(C)c(Nc2ccc(F)cc2Cl)c1-c1ccccc1C(F)(F)F [compound 236] | 0 | 0 | 96 | 68 | 97 | 0 | 97 |

Reference: US10448639B2, “Fungicidal pyrazoles” (FMC CORPORATION, priority 2009, dated 2019)
